In general, EC50 refers to the concentration that produces a half-maximal response. As a reminder, the IC50 is the concentration that inhibits the measured activity by half.

Holding throughout (format): cell-based
Assay [1] has as its target T1, hNMUR1 (Homo sapiens, UniProt Q9HB89).
T1 sequence (Q9HB89 1-426): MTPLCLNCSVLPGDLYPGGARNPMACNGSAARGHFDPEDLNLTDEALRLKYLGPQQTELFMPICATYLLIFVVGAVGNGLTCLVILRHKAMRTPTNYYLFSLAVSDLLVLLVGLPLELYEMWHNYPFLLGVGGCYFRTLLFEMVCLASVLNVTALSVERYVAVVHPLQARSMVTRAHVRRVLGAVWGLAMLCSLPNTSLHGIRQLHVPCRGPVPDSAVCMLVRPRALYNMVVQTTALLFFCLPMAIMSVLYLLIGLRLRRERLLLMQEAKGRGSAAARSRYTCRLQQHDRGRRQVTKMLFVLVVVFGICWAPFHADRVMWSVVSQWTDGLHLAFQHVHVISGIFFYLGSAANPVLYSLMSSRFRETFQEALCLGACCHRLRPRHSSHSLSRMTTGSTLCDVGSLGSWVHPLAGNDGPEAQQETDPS
Description: In vitro functional assay, HEK-hR1 cells. Further details: expressed in transfected cells; host or cells: FLP-In CHO or HEK-293 FLP-In cells (pcDNA5); HEK-293/aeq17 lines (pIRES-puro) were also made. An excerpt: (§1) Human, mouse or rat cDNAs encoding NMUR1 or NMUR2 (as described in Howard et al. Nature 406: 70-74 (2000) were subcloned in pcDNA5 (Invitrogen) and transfected into FLP-In CHO cells and HEK-293 FLP-In cells purchased from Invitrogen (Carlsbad, Calif.) using lipofectamine (Invitrogen). The Flp-In system allows integration and expression of a particular gene of interest at a specific genomic location utilizing the Flp recombinase from yeast. The transfected cells were selected by growth in medium containing 200 μg/mL hygromycin (Invitrogen). Populations were frozen at early passage numbers, and these stocks were used for further studies. Stable clones that expressed the mRNAs were identified functionally by FLIPR as well as by RT-PCR. […] Two different rodent NMUR1 cell lines were thus generated: one with the codon as predicted from the genomic databases and another cell line with an engineered methionine (ATG) as the start codon. Additionally, stable cell lines expressing the human receptors were generated in HEK-293/aeq17 cells which stably express the aequorin gene under the CMV promoter. The human NMUR2 cDNA was cloned into pcDNA3.1 and human NMUR1 was subcloned into pIRES-puro (Clontech, Mountain View, Calif.), after transfection cells were selected in media containing G418 and either hygromycin (NMUR2) or puromycin (NMUR1).
(§2) The NMU receptors signal primarily through Gαq/11 proteins; therefore calcium mobilization assays can be utilized for functional activity.
(§3) Stable cell lines expressing human and or rodent NMUR1 or human NMUR2 receptors were plated at a density of 12,000 cells per well overnight on poly-lysine coated 384-well black-walled plates. The following day, the media was removed from the plates and the cells were subsequently loaded with Fluo-3 (Molecular Probes), a calcium sensitive dye, diluted in FLIPR buffer (1× Hank's buffered saline containing 20 mM HEPES, 0.1% BSA, 2.5 mM probenecid (Sigma) and 1.6 mM TR40). All reagents are from Invitrogen unless otherwise noted. Peptide stocks were resuspended in DMSO at a stock concentration of 2 mM and diluted in FLIPR buffer on the day of the experiment to a 4 μM working stock solution.
(§4) After a 90 minute incubation at room-temperature, cell plates were loaded onto a FLIPR (Molecular Devices) to monitor cellular fluorescence (excitation=488 nm; emission=540 nm) before and after compound/peptide addition. Eight to twelve point dose responses were tested on NMUR-expressing cell lines using FLIPR with 1 μM peptide as the highest dose. The response after peptide addition was taken as the maximum fluorescence units minus the fluorescence immediately prior to stimulation for each well. EC50 values were calculated using GraphPad Prism (San Diego, Calif.) software.
In addition to FLIPR, NMU receptor function can also be evaluated using an aequorin assay. Stable cell lines expressing the aequorin jelly fish gene can be used to report the activation of GPCRs by monitoring intracellular calcium mobilization. The objective is to identify compounds which specifically stimulate aequorin bioluminescence. Calcium-dependent luminescence is generated by the treatment of cells with the coelenterate luciferin, coelenterazine. Briefly, confluent monolayers of HEK-293/aeq 17 cells expressing hNMUR1 or hNMUR2 are “charged” with coelenterazine (Molecular Probes, Carlsbad, Calif.). Confluent T75 flasks are rinsed with media containing 300 μM glutathione and 0.1% FBS. Cells are incubated at 37° C. for one hour in 8 mL media, 0.1% FBS, 300 μM glutathione, and 20 μM coelenterazine. T75 flasks are subsequently rinsed with 6 mL ECB buffer (140 mM NaCl, 20 mM KCl, 20 mM HEPES, 5 mM glucose, 1 mM MgCl, 1 mM CaCl2, 0.1 mg/mL BSA, PH 7.3-7.4). Cells are removed from the flask in ECB buffer, pelleted, and resuspended at a density of 2×10^5 cells/mL. Agonists are added to the cells and activity is determined using a luminometer. […]

In assay [2] the target is mouse NMUR2 (Mus musculus, UniProt Q8BZ39). Description: FLIPR calcium mobilization assay, mouse NMUR2. Further details: expressed in transfected cells; host or cells: FLP-In CHO or HEK-293 FLP-In cells (pcDNA5). Particulars: for % Activity: maximum response at 1 μM compared to hNMU-25.
mouse NMUR2, sequence (Q8BZ39 whole entry): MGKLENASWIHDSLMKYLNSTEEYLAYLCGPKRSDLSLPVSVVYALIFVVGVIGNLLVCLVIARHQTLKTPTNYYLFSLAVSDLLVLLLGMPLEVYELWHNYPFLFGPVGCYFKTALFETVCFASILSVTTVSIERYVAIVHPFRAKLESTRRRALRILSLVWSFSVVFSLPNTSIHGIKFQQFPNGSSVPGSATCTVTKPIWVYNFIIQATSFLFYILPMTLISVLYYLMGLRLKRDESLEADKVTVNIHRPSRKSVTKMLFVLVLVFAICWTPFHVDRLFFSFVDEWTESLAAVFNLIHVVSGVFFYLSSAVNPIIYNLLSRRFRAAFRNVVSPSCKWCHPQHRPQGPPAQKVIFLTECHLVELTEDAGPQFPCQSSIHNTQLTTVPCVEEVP
Text: as §1, §2, §3, §4
(§5) In vitro responses of Neuromedin U receptor agonists (NMU1 to NMU25) in the FLIPR assay for human (Table 3), mouse (Table 4) and rat (Table 5) NMUR1 and NMUR2. EC50s are reported in nM values. Percent activity refers to the maximum response at 1 μM compared to the hNMU-25 response at the same concentration. NT=not tested.
In general terms: Calcium assays in cells follow changes in intracellular calcium, usually with a dye or a luminescent sensor.

Assay [3] concerns the target hNMUR2 (Homo sapiens, UniProt Q9GZQ4). Description: FLIPR calcium mobilization assay, human NMUR2. Further details: expressed in transfected cells; host or cells: FLP-In CHO or HEK-293 FLP-In cells (pcDNA5); HEK-293/aeq17 lines (pcDNA3.1) were also made. The note with it: human NMUR2; for EC50: FLIPR; for % Activity: maximum response at 1 μM compared to hNMU-25.
Text: as §1, §2, §3, §4, §5

Non-standard residues stand in square brackets, D forms with d. Residues, ends and D or L forms follow the SMILES beside them. No end group written: not given here. *: point of attachment. Succinimide(1-Et,3-yl) = CCN1C(=O)CC(*)C1=O; hArg = N=C(N)NCCCC[C@H](N)C(=O)O; dNle = CCCC[C@@H](N)C(=O)O Some results are limits rather than exact numbers.

hNMUR2, sequence (Q9GZQ4 whole entry): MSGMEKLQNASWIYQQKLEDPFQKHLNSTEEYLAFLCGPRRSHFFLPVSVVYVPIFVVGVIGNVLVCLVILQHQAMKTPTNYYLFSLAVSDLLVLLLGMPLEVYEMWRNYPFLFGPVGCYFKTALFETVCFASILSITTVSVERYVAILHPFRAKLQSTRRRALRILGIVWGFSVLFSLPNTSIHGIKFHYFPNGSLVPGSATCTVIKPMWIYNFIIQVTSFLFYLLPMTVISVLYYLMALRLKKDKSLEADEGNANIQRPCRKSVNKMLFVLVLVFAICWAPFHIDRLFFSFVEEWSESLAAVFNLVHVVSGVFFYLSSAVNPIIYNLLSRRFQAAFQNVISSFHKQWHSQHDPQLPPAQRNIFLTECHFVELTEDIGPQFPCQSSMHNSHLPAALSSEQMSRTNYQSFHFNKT

For `CC(C)C[C@H](NC(=O)[C@H](Cc1c[nH]c2ccccc12)NC(=O)[C@H](Cc1ccccc1)NC(=O)CNC(=O)[C@H](CCCNC(=N)N)NC(=O)[C@H](CO)NC(=O)[C@H](CCC(N)=O)NC(=O)[C@H](CO)NC(=O)[C@H](C)NC(=O)[C@H](Cc1ccccc1)NC(=O)[C@@H]1CCCN1C(=O)[C@H](CO)NC(=O)[C@H](CCC(N)=O)NC(=O)[C@H](Cc1ccccc1)NC(=O)[C@H](CCC(=O)O)NC(=O)[C@H](CCC(=O)O)NC(=O)[C@H](CC(=O)O)NC(=O)[C@@H](NC(=O)[C@H](CCCNC(=N)N)NC(=O)[C@@H](N)Cc1ccccc1)C(C)C)C(=O)N[C@@H](Cc1ccccc1)C(=O)N[C@@H](CCCNC(=N)N)C(=O)N[C@@H](C)C(=O)N[C@@H](CCCCNC(=N)N)C(=O)N[C@@H](CC(N)=O)C(N)=O` [Agonist P] (H-FRVDEEFQSPFASQSRGFWLFRA[hArg]N-NH2; N-terminus assumed), the “% Activity” value in assay [1] (Table 9, HEK-hR1, functional) is reported as 11%.
With `CCCC[C@@H](NC(=O)[C@H](CCCNC(=N)N)NC(=O)[C@@H]1CCCN1C(=O)[C@H](CCCNC(=N)N)NC(=O)[C@H](Cc1ccccc1)NC(=O)[C@H](CC(C)C)NC(=O)[C@H](Cc1c[nH]c2ccccc12)NC(=O)[C@H](Cc1ccccc1)NC(=O)CNC(=O)[C@H](CCCNC(=N)N)NC(=O)[C@H](CO)NC(=O)[C@H](CCC(N)=O)NC(=O)[C@H](CO)NC(=O)[C@H](C)NC(=O)[C@H](Cc1ccccc1)NC(=O)[C@@H]1CCCN1C(=O)[C@H](CO)NC(=O)[C@H](CCC(N)=O)NC(=O)[C@H](Cc1ccccc1)NC(=O)[C@H](CCC(=O)O)NC(=O)[C@H](CCC(=O)O)NC(=O)[C@H](CC(=O)O)NC(=O)[C@@H](NC(=O)[C@H](CCCNC(=N)N)NC(=O)[C@@H](N)Cc1ccccc1)C(C)C)C(N)=O` [Agonist Q] (H-FRVDEEFQSPFASQSRGFWLFRPR[dNle]-NH2), in assay [1] (Table 9, HEK-hR1, functional), the “% Activity” value is recorded as 0% and the EC50 was over 1000 nM.
For the compound `CCN1C(=O)CC(SC[C@H](NC(C)=O)C(=O)NCC(=O)N[C@@H](Cc2ccc(O)cc2)C(=O)N[C@@H](Cc2ccccc2)C(=O)N[C@@H](CC(C)C)C(=O)N[C@@H](Cc2ccccc2)C(=O)N[C@@H](CCCNC(=N)N)C(=O)N2CCC[C@H]2C(=O)N[C@@H](CCCNC(=N)N)C(=O)N[C@@H](CC(N)=O)C(N)=O)C1=O` (stereo partly drawn) [NMU6] (Ac-C(Succinimide(1-Et,3-yl))GYFLFRPRN-NH2), the “% Activity” value in assay [2] (mouse NMUR2) was found to be 100%. For the same compound, in assay [3], the EC50 came to 1.5 nM and the “% Activity” value is on record as 100%.
In the case of `CCN1C(=O)CC(SC[C@H](NC(C)=O)C(=O)N[C@@H](Cc2ccccc2)C(=O)N[C@@H](CCCNC(=N)N)C(=O)N[C@H](C(=O)N[C@@H](CC(=O)O)C(=O)N[C@@H](CCC(=O)O)C(=O)N[C@@H](CCC(=O)O)C(=O)N[C@@H](Cc2ccccc2)C(=O)N[C@@H](CCC(N)=O)C(=O)N[C@@H](CO)C(=O)N2CCC[C@H]2C(=O)N[C@@H](Cc2ccccc2)C(=O)N[C@@H](C)C(=O)N[C@@H](CO)C(=O)N[C@@H](CCC(N)=O)C(=O)N[C@@H](CO)C(=O)N[C@@H](CCCNC(=N)N)C(=O)NCC(=O)N[C@@H](Cc2ccc(O)cc2)C(=O)N[C@@H](Cc2ccccc2)C(=O)N[C@@H](CC(C)C)C(=O)N[C@@H](Cc2ccccc2)C(=O)N[C@@H](CCCNC(=N)N)C(=O)N2CCC[C@H]2C(=O)N[C@@H](CCCNC(=N)N)C(=O)N[C@@H](CC(N)=O)C(N)=O)C(C)C)C1=O` (stereo partly drawn) [NMU8] (Ac-C(Succinimide(1-Et,3-yl))FRVDEEFQSPFASQSRGYFLFRPRN-NH2), the “% Activity” value in assay [2] (mouse NMUR2) and in assay [3] was 100% throughout.
Take `CC(C)C[C@H](NC(=O)[C@H](Cc1ccccc1)NC(=O)[C@@H](N)Cc1ccc(O)cc1)C(=O)N[C@@H](Cc1ccccc1)C(=O)N[C@@H](CCCNC(=N)N)C(=O)N1CCC[C@H]1C(=O)N[C@@H](CCCNC(=N)N)C(=O)N[C@@H](CC(N)=O)C(N)=O` [NMU-8, reference compound]: in assay [1] (Table 9, HEK-hR1, functional), the “% Activity” value is 100%.
For the compound “Ac-C4-C4-FRVDEEFQSPFASQSRGYFLFRPRN-CONH2 ({Ac-C(PEG 20 kDa)-C(PEG 20 kDa)}-FRVDEEFQSPFASQSRGYFLFRPRN-NH2) [NMU23, C4 = Cys(PEG)20 kDa]”, the EC50 in assay [2] (FLIPR, mouse NMUR2) was 21.3 nM.
As for “Ac-C4FRVDEEFQSPFASQSRGYFLFRPRN-CONH2 ({Ac-C(PEG 20 kDa)}-FRVDEEFQSPFASQSRGYFLFRPRN-NH2) [NMU21, C4 = Cys(PEG)20 kDa]”, in assay [3], the EC50 came out at 24.2 nM and the “% Activity” value turned out to be 97.9%.
Consider “Ac-FFRPRN-NH2 [Agonist F, Ac-FFRPRN-CONH2]”, for which, in assay [1] (Table 8, HEK-hR1, functional), the “% Activity” value turned out to be 96% and the IC50 is 42 nM.
Consider FALFRPRN-NH2 [Agonist N], for which, in assay [1] (Table 9, HEK-hR1, functional), the “% Activity” value is 87%.
As for “H-FRVDEEFQSPFASQSRGYFLFRPRN-NH2 [hNMU-25, reference compound]”, the IC50 in assay [2] (functional data, mouse R2) amounted to 0.2 nM. Further, in assay [1] (Table 9, HEK-hR1, functional), the “% Activity” value is 100% and it took 5.5 nM to reach a half-maximal effect (EC50).
As for “H-FRVDEEFQSPFASQSRGYFWRPRN-NH2 [Agonist G]”, in assay [1] (Table 8, HEK-hR1, functional), the “% Activity” value worked out at 91%.
For the compound H-FWLFRARN-NH2 [Agonist L], in assay [1] (Table 9, HEK-hR1, functional), the “% Activity” value is on record as 74% and the EC50 was over 1000 nM.
For the compound H-YFGWRPRN-NH2 [Agonist C], in assay [1] (Table 8, HEK-hR1, functional), the “% Activity” value worked out at 87% and the midpoint of inhibition, the IC50, lay at 1.1 nM.
Consider WALFRARN-NH2 [Agonist M], for which, in assay [1] (Table 9, HEK-hR1, functional), the “% Activity” value came out at 0% and the 50% effective concentration (EC50) was over 1000 nM.
On to YFWRPRN-NH2 [Agonist A, YFWRPRN-CONH2], for which, in assay [1] (Table 8, HEK-hR1, functional), the “% Activity” value is given as 92% and the IC50 was 2.7 nM.
